Source: a melting point compilation (Tetko et al.; mined from patent text by program, amines drawn as free bases though some values may be those of a salt)

melting point [°C] | Compound
103 to 104 | CCCc1nc(NCc2ccccn2)nc(Nc2cccc(C(C)C)c2)n1
181 to 184 | CCCCN(CCCC)c1ccc(C=CC=CC2=C(C#N)C(=C(C#N)C#N)OC2(C)C)c(OC)c1
101 to 103 | COC(=O)c1cc(C)nc(OC)n1
204 to 206 | O=[N+]([O-])c1cccc2c(O)ccnc12
65 to 67 | CCCCCCCCN1C(=O)NC2(CC(C)(CC)NC(C)(CC)C2C)C1=O (centres undefined)
161 to 162 | COc1cc2c(c3c1OC(C)(C)C3)C(c1ccc(=O)n(-c3cc(C)ccn3)c1)=NC(C)(C)C2
146 to 148 | O=C(C=CCC(Nc1cc(Cl)cc(Cl)c1I)C(=O)OCc1ccccc1)Nc1ccccc1 (centres undefined)
156 to 158 | COC(=O)C1=C(C)NC(C)C(C(=O)OC)=C1c1cc(Cl)ccc1COCc1ccccc1 (centres undefined)
296 to 297 | O=C1Nc2c(F)cc(F)cc2C1c1ncnc2nn(C3CCCC3)cc12 (centres undefined)
61.5 to 64 | CCCCC(=O)C(=C1NCCCS1)[N+](=O)[O-]
187 to 191 | CCOC(=O)c1nc(-c2ccc([N+](=O)[O-])c(C)c2)[nH]c1-c1ccc(OC)cc1
227 to 228 | CSc1nn2c(N)cc(C)nc2c1S(=O)(=O)c1cccnc1
174 to 175 | COc1ccc2c(C)c(CCOS(C)(=O)=O)c(=O)oc2c1
194 to 196 | Cc1cc(N2C=C3C(c4ccccc4)=C(OCc4ncn(C)n4)NN3C=N2)no1
140 | CC(C)CCNC(=O)c1ccc2c(c1)N(C(C)CN1CCCC1CO)c1ccccc1S2 (centres undefined)
68 to 69 | CCc1ccc(-c2coc3c(C)c(C)c(N)c(C)c23)cc1
140 to 142 | COCCN1CCN(Cc2ccc3c(c2)-c2[nH]nc(-c4ccsc4)c2C3)CC1
95 to 96 | O=C(O)COc1cccc(CN2C(=O)C3(COc4cc5c(cc43)CCO5)c3ccccc32)c1 (centres undefined)
161 | NCc1cc(Cl)c(NC(=O)CN2CCN(CCCCC(c3ccc(F)cc3)c3ccc(F)cc3)CC2C(N)=O)c(Cl)c1 (centres undefined)
308 | O=C(Nc1ccc2ccc(Cl)nc2n1)c1cnccn1
148 to 150 | CN(C)C(=O)C(C)(C)n1cc(-c2ccccc2)c(-c2ccccc2)n1
195 to 197 | CONCc1nc2c(N)nc3cc(-c4cccnc4)cnc3c2n1CC(C)(C)O
122 | COc1ccc(OCC2CO2)c(C(=O)Nc2cccc3[nH]ccc23)c1 (centres undefined)

melting point [°C] | Compound
243 to 245 | Nc1ccc(-c2cc3c(N4CCCc5ccccc54)ncnc3[nH]2)cc1
> 260 | O=C1COCC2=C1C(c1ccc(F)c(Br)c1)C1=C(CNC1=O)N2 (centres undefined)
200 | CC(C)Nc1cccnc1N1CCN(C(=O)c2cc3cc(NC(=O)N4CCN(C)CC4)ccc3[nH]2)CC1
150 to 152 | CC(C)(CC(=O)C(=O)Nc1ccc2c(c1Br)COC2=O)c1ccccc1
127 to 129 | COc1cccc(C(=O)CCCN2CCC(O)(c3ccc(Cl)cc3)CC2)c1
129 to 130 | Cc1ccc(S(=O)(=O)Cc2ccc(C(C)(C)N)cc2)cc1C
52 to 54 | COCOc1ccc2cc(C=O)ccc2c1
160 to 161 | CC(=O)Oc1cc(OC(C)=O)c2c(c1)Oc1ccccc1C2C#N (centres undefined)
138 | Cc1nn(C)c(F)c1C(=O)Nc1cccc2c1CCC2(C)C
126 | CCOC(=O)C(=O)NNC(=O)c1ccc(OCC)cc1
191 to 192 | CC(C)CNS(=O)(=O)c1ccc2c(c1)C=C(C(=O)O)C(C(F)(F)F)O2 (centres undefined)
124 to 125 | Cc1ccc2ccc(C)c(O)c2c1
166 to 169 | CNCC1(C2(O)CCCC2)Cc2cc3sccc3cc21 (centres undefined)
132 to 133 | C[C@H]1C=CC2=C[C@@H](O)C[C@H](OC(=O)C(C)(C)C)[C@@H]2[C@H]1CC[C@@H]1C[C@@H](O)CC(=O)O1
79 to 81 | CCOC(=O)c1cnn(-c2ccc(Cl)cc2Cl)c1C#N
45 to 48 | CN1C(=O)CC[C@]2(C)c3ccc(-c4ccc(Cl)cc4Cl)cc3CC[C@@H]12
158 to 160 | COc1cc(C#CC(=O)c2ccccc2)cc(OC)c1OC
115 to 117 | CC1(C(=O)Nc2cnc(Cl)c(Cl)c2)CC1
196 to 205 | O=C(c1ccccc1)c1ccc2c([N+](=O)[O-])c(O)c(O)cc2c1
176 to 177 | NC(=O)c1ccc(Sc2ccc(Cl)cc2)c(Cl)c1
58 to 59 | Oc1cc(C(F)(F)F)nn1-c1ccc(Cl)cn1
287 to 289 | CC(C)(C)OC(=O)Oc1nc2c(N)ncnc2n1Cc1ccccc1
58 to 59 | CCCCCCC(=O)CCCC(=O)O

melting point [°C] | Compound
113 to 114 | CCOC(=O)C(=C(c1ccc(F)cc1)c1ccc(F)cc1)c1nnn(CC)n1
217 to 219 | C=CCNC(=O)N1CCc2cc(S(=O)(=O)N3CC(c4ccccc4)NC3=O)ccc21 (centres undefined)
82 | CN(C)CCC1=Cc2ccccc2N(C)c2ccc(Cl)cc21
261 to 264 | CC(C)(N)[C@H]1CCN(c2c(F)cc3c(=O)c(C(=O)O)cn(C4CC4)c3c2F)C1
222 to 225 | Cn1cnc(S(=O)(=O)n2c(CCCC(=O)O)cc3cc(Cl)ccc32)c1
115 to 116 | CCn1nc(-c2ccccc2)c(C(=O)OCC(=O)OCc2ccccc2)c(Nc2cnccc2C)c1=O
90 to 92.5 | COC(=O)C(C)c1cc(=O)n(Cc2ccccc2)c2ccccc12 (centres undefined)
63.5 to 66 | CCOC(=O)/C=C/c1ccc(OCCC(C)(C)O)cc1Oc1ncc(C(F)(F)F)cc1Cl
235 to 236 | Cc1nn(C)c2nc(-c3ccncc3)nc(N)c12
205 | CCOC(=O)c1cn(C)c2nc(Cl)ncc2c1=O
55.4 | Cn1c(C(F)(F)F)cc(=O)n(-c2cc(Oc3ccccc3O)c(Cl)cc2F)c1=O
> 255 | CCc1nc2c(N)nc3cccnc3c2n1CC1(O)CCN(C(=O)N2CCOCC2)CC1
156 to 157 | COCCn1nc2c(N)nc3ccccc3c2c1CCCCCl
205 | O=C(O)Cc1cc(C(=O)c2ccccc2)ccc1O
200 to 202 | CCCCc1nc(Cl)c(C(N)=O)n1Cc1ccc(-c2ccccc2C(=O)O)cc1
132 to 134 | COCOc1c(NC(=O)NN)cc(OC)cc1C(C)(C)C
170 to 171 | Cc1ccc(C(=O)NC(Cc2ccccc2)NC(=S)Nc2cccc([N+](=O)[O-])c2)cc1 (centres undefined)
153 | CCOC(=O)c1ccc(-c2cnc3c(c2)N(Cc2ccccc2OC(F)(F)F)CCN3)cc1
143 to 146 | O=c1c(Br)c(OCc2ccccc2Cl)ccn1Cc1ccccc1
47 to 51 | CCOc1ccc(C2=NN(CCCCCCBr)C(=O)[C@H]3CCCC[C@@H]23)cc1OCC (relative stereo)
128 to 129 | CCC(CC)(Cc1ccc(Cl)cc1)C(O)c1cccnc1 (centres undefined)
> 230 | CNc1nc(-c2ccc(-c3ccccc3)cc2)c(C(=O)OC)s1
183 to 192 | NCC1CCc2c(O)cccc2C1 (centres undefined)

melting point [°C] | Compound
184 to 185 | CC(C)CCN1CCC(N(C)S(=O)(=O)c2ccc(Nc3nccc(Nc4ccc(F)cc4)n3)cc2)CC1
159 to 160 | CCSc1nc2c(C(=O)OC)sc(C)c2[nH]1
125 to 128 | OC(c1ccccc1)C1CCN(CCc2ccccc2)CC1 (centres undefined)
93 to 94 | COc1ccc(CNc2cc(F)cc(C#N)c2)cc1
134 to 135 | O=C(O)C1CSC(c2cc(Cl)ccc2OCCO[N+](=O)[O-])N1 (centres undefined)
182 to 184 | O=C(O)C1Oc2cc(Cl)c(S(=O)(=O)c3ccc4c(c3)OCO4)cc2O1 (centres undefined)
235 to 237 | Cc1cc(N2CCN(CCc3ccc(NS(C)(=O)=O)cc3)CC2)ccc1NS(C)(=O)=O
122 to 123 | CC1CCC(C(C)C)C(OC(=O)C2(CC(N)=O)C(=O)N(Cc3ccc(Br)cc3F)C(=O)c3cccn32)C1 (centres undefined)
317 to 318 | CCc1nnc(-c2ccc(O)cc2)n1-c1ccc(O)cc1
> 265 | CCCc1nc2c(N)nc3cc(O)ccc3c2n1CC(C)C
233 to 235 | OCCCn1c(-c2c(Cl)cccc2Cl)nc(-c2ccncc2)c1-c1ccc(Cl)cc1
261 | Cc1c(C(=O)O)cnn1-c1nc(-c2cc(C(F)(F)F)cc(C(F)(F)F)c2)cs1
143 to 145 | CS(=O)(=O)c1ccc(-c2cc(C(=O)CCCO)nn2-c2ccccc2)cc1
50 to 70 | CCCCNS(=O)(=O)C[C@@H](O)C(O)[C@@H](CC1CCCCC1)NC(=O)[C@H](CC(C)C)NC(=O)OCc1ccccc1 (relative stereo)
109 to 110 | CCCC1=C(C(=O)OCC)SCCS1=O (centres undefined)
50.5 to 51.5 | CCCS(=O)c1ncn(C(=O)N(CC)CC)n1 (centres undefined)
86 | CC(=O)OCCOCCN1CCC(CNC(=O)[C@@H]2CCCN2S(=O)(=O)c2ccc(Cl)c(COc3cccc4c(-n5cncn5)cc(C)nc34)c2Cl)CC1
202 to 203 | Cc1cccc2c(=O)[nH]c(N3CCN(CCCCN4CCN(C)CC4)CC3)cc12
91 to 92 | CC1(C)COc2cc3ccccc3c(=O)n21
92 to 94 | O=C(CCc1ccccc1)NC1CCC(=O)N2CCCC(C(=O)NC3CC(=O)OC3OCc3ccccc3)N2C1=O (centres undefined)
143 to 144 | O=C(CCC(F)([N+](=O)[O-])[N+](=O)[O-])NNC(=O)C(F)(F)C(F)(F)C(F)(F)F
37 to 38 | Cc1cc(C#N)cc(C)c1OCCCc1ccc(CO)o1
198 to 201 | N#Cc1ccc(N=C=O)cc1Cl

Compound | melting point [°C]
CC(C)CCN1C(=O)C(NC(=O)Oc2cccc(N(C)C)c2)C(=O)N(c2ccccc2F)c2ccccc21 (centres undefined) | 193 to 194
Clc1cc2c(s1)-n1c(nnc1CN1CCOCC1)CN=C2c1ccccc1Cl | 224 to 226
COC1(C=Cc2ccc(C=O)cc2)OOCCOO1 | 95 to 97
[N-]=[N+]=NCCc1ccc(C(=O)O)cc1 | 130 to 131
Cc1cn2cccc(CCl)c2n1 | 110 to 112
CCCCCNc1nc2ccccc2n1C1CCN(C2(c3ccccc3)CCCCCC2)CC1 | 156 to 159
CC(C)NC(=O)c1ccc(N2CCC(N3C(=O)OCc4ccccc43)CC2)nn1 | 120
